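1) Cells in 96-well plates. 2) Compound, 48 h, 5 concentrations. 3) Linear interpolation between surrounding doses. 4) Unreached endpoint = highest concentration. TGI marks complete inhibition of growth.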
Legend:
Test in all cases: NCI-60 cell line screen, 48 h
RPMI-8226 leukemia = test system: RPMI-8226 leukemia
SF-295 CNS = test system: SF-295 CNS
CAKI-1 renal = test system: CAKI-1 renal
RXF-631 renal = test system: RXF-631 renal
OVCAR-5 ovarian = test system: OVCAR-5 ovarian
DMS 273 small cell lung = test system: DMS 273 small cell lung
HS 578T breast = test system: HS 578T breast
MDA-MB-435 = test system: MDA-MB-435
TK-10 renal = test system: TK-10 renal
A549 NSCLC = test system: A549 NSCLC
COLO 205 colon = test system: COLO 205 colon
SK-MEL-2 melanoma = test system: SK-MEL-2 melanoma
LOX IMVI melanoma = test system: LOX IMVI melanoma
MALME-3M melanoma = test system: MALME-3M melanoma
SF-539 CNS = test system: SF-539 CNS
DMS 114 small cell lung = test system: DMS 114 small cell lung
KM12 colon = test system: KM12 colon
EKVX NSCLC = test system: EKVX NSCLC
NCI-H522 lung = test system: NCI-H522 lung
SK-OV-3 ovarian = test system: SK-OV-3 ovarian
RXF 393 renal = test system: RXF 393 renal
SNB-75 CNS = test system: SNB-75 CNS
K-562 leukemia = test system: K-562 leukemia
XF 498 CNS = test system: XF 498 CNS
SK-MEL-5 melanoma = test system: SK-MEL-5 melanoma
SNB-19 CNS = test system: SNB-19 CNS
MCF7 breast = test system: MCF7 breast
MDA-MB-231 breast = test system: MDA-MB-231 breast
KM20L2 colon = test system: KM20L2 colon
HOP-62 NSCLC = test system: HOP-62 NSCLC
MOLT-4 leukemia = test system: MOLT-4 leukemia
CCRF-CEM leukemia = test system: CCRF-CEM leukemia
A498 renal = test system: A498 renal
OVCAR-3 ovarian = test system: OVCAR-3 ovarian
HCT-116 colon = test system: HCT-116 colon
OVCAR-8 ovarian = test system: OVCAR-8 ovarian
SK-MEL-28 melanoma = test system: SK-MEL-28 melanoma
DU-145 prostate = test system: DU-145 prostate
NCI-H460 lung = test system: NCI-H460 lung
HT29 colon = test system: HT29 colon
HOP-92 NSCLC = test system: HOP-92 NSCLC
IGROV1 ovarian = test system: IGROV1 ovarian
HCC-2998 colon = test system: HCC-2998 colon
HOP-18 NSCLC = test system: HOP-18 NSCLC
NCI/ADR-RES ovarian = test system: NCI/ADR-RES ovarian
SW-620 colon = test system: SW-620 colon
HL-60(TB) leukemia = test system: HL-60(TB) leukemia
M14 melanoma = test system: M14 melanoma
DLD-1 colon = test system: DLD-1 colon
SN12C renal = test system: SN12C renal
BT-549 breast = test system: BT-549 breast
786-0 renal = test system: 786-0 renal
SR leukemia = test system: SR leukemia
NCI-H23 lung = test system: NCI-H23 lung
ACHN renal = test system: ACHN renal
UO-31 renal = test system: UO-31 renal
SF-268 CNS = test system: SF-268 CNS
LXFL 529 NSCLC = test system: LXFL 529 NSCLC
NCI-H226 lung = test system: NCI-H226 lung
U251 CNS = test system: U251 CNS
MDA-N = test system: MDA-N
UACC-257 melanoma = test system: UACC-257 melanoma
M19-MEL melanoma = test system: M19-MEL melanoma
PC-3 prostate = test system: PC-3 prostate
T-47D breast = test system: T-47D breast
OVCAR-4 ovarian = test system: OVCAR-4 ovarian
UACC-62 melanoma = test system: UACC-62 melanoma
SNB-78 CNS = test system: SNB-78 CNS
HCT-15 colon = test system: HCT-15 colon

Structure (SMILES): Cc1cc(C)c(-n2c(-c3ccc(Br)cc3)cs/c2=N\N=C2C=C(C(C)(C)C)C(=O)C(C(C)(C)C)=C2)c(C)c1
- TGI (RPMI-8226 leukemia): > 100 µM
- TGI (SF-295 CNS): > 100 µM
- TGI (CAKI-1 renal): > 100 µM
- TGI (RXF-631 renal): > 100 µM
- TGI (OVCAR-5 ovarian): > 100 µM
- TGI (DMS 273 small cell lung): > 100 µM
- TGI (HS 578T breast): 62.5 µM
- TGI (MDA-MB-435): > 100 µM
- TGI (TK-10 renal): > 100 µM
- TGI (A549 NSCLC): > 100 µM
- TGI (COLO 205 colon): > 100 µM
- TGI (SK-MEL-2 melanoma): > 100 µM
- TGI (LOX IMVI melanoma): > 100 µM
- TGI (MALME-3M melanoma): > 100 µM
- TGI (SF-539 CNS): > 100 µM
- TGI (DMS 114 small cell lung): > 100 µM
- TGI (KM12 colon): > 100 µM
- TGI (EKVX NSCLC): > 100 µM
- TGI (NCI-H522 lung): > 100 µM
- TGI (SK-OV-3 ovarian): > 100 µM
- TGI (RXF 393 renal): 81.8 µM
- TGI (SNB-75 CNS): 57.1 µM
- TGI (K-562 leukemia): > 100 µM
- TGI (XF 498 CNS): > 100 µM
- TGI (SK-MEL-5 melanoma): > 100 µM
- TGI (SNB-19 CNS): > 100 µM
- TGI (MCF7 breast): > 100 µM
- TGI (MDA-MB-231 breast): > 100 µM
- TGI (KM20L2 colon): > 100 µM
- TGI (HOP-62 NSCLC): > 78.6 µM
- TGI (MOLT-4 leukemia): > 100 µM
- TGI (CCRF-CEM leukemia): > 100 µM
- TGI (A498 renal): 97.7 µM
- TGI (OVCAR-3 ovarian): > 100 µM
- TGI (HCT-116 colon): > 100 µM
- TGI (OVCAR-8 ovarian): > 100 µM
- TGI (SK-MEL-28 melanoma): > 100 µM
- TGI (DU-145 prostate): > 100 µM
- TGI (NCI-H460 lung): > 100 µM
- TGI (HT29 colon): > 100 µM
- TGI (HOP-92 NSCLC): > 89.8 µM
- TGI (IGROV1 ovarian): > 100 µM
- TGI (HCC-2998 colon): > 100 µM
- TGI (HOP-18 NSCLC): > 100 µM
- TGI (NCI/ADR-RES ovarian): > 100 µM
- TGI (SW-620 colon): > 100 µM
- TGI (HL-60(TB) leukemia): > 100 µM
- TGI (M14 melanoma): > 100 µM
- TGI (DLD-1 colon): > 100 µM
- TGI (SN12C renal): > 100 µM
- TGI (BT-549 breast): > 100 µM
- TGI (786-0 renal): > 100 µM
- TGI (SR leukemia): > 100 µM
- TGI (NCI-H23 lung): > 100 µM
- TGI (ACHN renal): > 100 µM
- TGI (UO-31 renal): > 100 µM
- TGI (SF-268 CNS): > 100 µM
- TGI (LXFL 529 NSCLC): > 100 µM
- TGI (NCI-H226 lung): > 100 µM
- TGI (U251 CNS): > 100 µM
- TGI (MDA-N): > 100 µM
- TGI (UACC-257 melanoma): > 100 µM
- TGI (M19-MEL melanoma): > 100 µM
- TGI (PC-3 prostate): > 100 µM
- TGI (T-47D breast): > 100 µM
- TGI (OVCAR-4 ovarian): > 100 µM
- TGI (UACC-62 melanoma): > 100 µM
- TGI (SNB-78 CNS): > 100 µM
- TGI (HCT-15 colon): > 100 µM

Structure (SMILES): Cc1cc(Cl)ccc1NC(=O)CC1SC(=Nc2ccccc2Cl)NC1=O (configuration not stated)
- TGI (RPMI-8226 leukemia): > 100 µM
- TGI (SF-295 CNS): > 100 µM
- TGI (CAKI-1 renal): > 100 µM
- TGI (RXF-631 renal): > 100 µM
- TGI (OVCAR-5 ovarian): > 100 µM
- TGI (DMS 273 small cell lung): > 100 µM
- TGI (TK-10 renal): > 100 µM
- TGI (A549 NSCLC): > 100 µM
- TGI (COLO 205 colon): 47.1 µM
- TGI (SK-MEL-2 melanoma): > 100 µM
- TGI (MALME-3M melanoma): > 100 µM
- TGI (SF-539 CNS): 55.3 µM
- TGI (DMS 114 small cell lung): 67.5 µM
- TGI (KM12 colon): > 100 µM
- TGI (EKVX NSCLC): > 100 µM
- TGI (NCI-H522 lung): 80.4 µM
- TGI (SK-OV-3 ovarian): > 100 µM
- TGI (RXF 393 renal): 84.3 µM
- TGI (SNB-75 CNS): > 100 µM
- TGI (K-562 leukemia): > 100 µM
- TGI (XF 498 CNS): > 100 µM
- TGI (SK-MEL-5 melanoma): > 100 µM
- TGI (SNB-19 CNS): > 100 µM
- TGI (KM20L2 colon): 88.2 µM
- TGI (HOP-62 NSCLC): > 100 µM
- TGI (MOLT-4 leukemia): > 100 µM
- TGI (CCRF-CEM leukemia): > 100 µM
- TGI (A498 renal): > 100 µM
- TGI (OVCAR-3 ovarian): > 100 µM
- TGI (HCT-116 colon): > 100 µM
- TGI (OVCAR-8 ovarian): > 100 µM
- TGI (SK-MEL-28 melanoma): > 100 µM
- TGI (NCI-H460 lung): > 100 µM
- TGI (HT29 colon): > 100 µM
- TGI (HOP-92 NSCLC): > 100 µM
- TGI (IGROV1 ovarian): > 100 µM
- TGI (HCC-2998 colon): > 100 µM
- TGI (HOP-18 NSCLC): > 100 µM
- TGI (SW-620 colon): > 100 µM
- TGI (HL-60(TB) leukemia): 40.4 µM
- TGI (M14 melanoma): > 100 µM
- TGI (DLD-1 colon): > 100 µM
- TGI (SN12C renal): > 100 µM
- TGI (786-0 renal): > 100 µM
- TGI (SR leukemia): 70.2 µM
- TGI (NCI-H23 lung): > 100 µM
- TGI (ACHN renal): > 100 µM
- TGI (UO-31 renal): > 100 µM
- TGI (SF-268 CNS): > 100 µM
- TGI (LXFL 529 NSCLC): > 100 µM
- TGI (NCI-H226 lung): > 100 µM
- TGI (U251 CNS): > 100 µM
- TGI (UACC-257 melanoma): > 100 µM
- TGI (M19-MEL melanoma): > 100 µM
- TGI (OVCAR-4 ovarian): > 100 µM
- TGI (UACC-62 melanoma): > 100 µM
- TGI (SNB-78 CNS): > 100 µM
- TGI (HCT-15 colon): > 100 µM

From PubChem BioAssay (NCI)
